The assay addresses Envelope glycoprotein gp160 (Human immunodeficiency virus 1, UniProt Q6QLK5). Description: inhibitors of HIV fusion peptide binding, primary screen, biochemical, uHTS, fluorescence dequenching (AID 1986).

We go through 1 compound from ChEMBL document CHEMBL1201862, “PubChem BioAssay data set” (2004).

Activity calls are given as the source filed them. Cut-off read from the data, not from the text of the source: actives have a measured IC50 and inactives only a lower limit.

Sequence of Envelope glycoprotein gp160 (Q6QLK5 whole entry, the tested form may be a part): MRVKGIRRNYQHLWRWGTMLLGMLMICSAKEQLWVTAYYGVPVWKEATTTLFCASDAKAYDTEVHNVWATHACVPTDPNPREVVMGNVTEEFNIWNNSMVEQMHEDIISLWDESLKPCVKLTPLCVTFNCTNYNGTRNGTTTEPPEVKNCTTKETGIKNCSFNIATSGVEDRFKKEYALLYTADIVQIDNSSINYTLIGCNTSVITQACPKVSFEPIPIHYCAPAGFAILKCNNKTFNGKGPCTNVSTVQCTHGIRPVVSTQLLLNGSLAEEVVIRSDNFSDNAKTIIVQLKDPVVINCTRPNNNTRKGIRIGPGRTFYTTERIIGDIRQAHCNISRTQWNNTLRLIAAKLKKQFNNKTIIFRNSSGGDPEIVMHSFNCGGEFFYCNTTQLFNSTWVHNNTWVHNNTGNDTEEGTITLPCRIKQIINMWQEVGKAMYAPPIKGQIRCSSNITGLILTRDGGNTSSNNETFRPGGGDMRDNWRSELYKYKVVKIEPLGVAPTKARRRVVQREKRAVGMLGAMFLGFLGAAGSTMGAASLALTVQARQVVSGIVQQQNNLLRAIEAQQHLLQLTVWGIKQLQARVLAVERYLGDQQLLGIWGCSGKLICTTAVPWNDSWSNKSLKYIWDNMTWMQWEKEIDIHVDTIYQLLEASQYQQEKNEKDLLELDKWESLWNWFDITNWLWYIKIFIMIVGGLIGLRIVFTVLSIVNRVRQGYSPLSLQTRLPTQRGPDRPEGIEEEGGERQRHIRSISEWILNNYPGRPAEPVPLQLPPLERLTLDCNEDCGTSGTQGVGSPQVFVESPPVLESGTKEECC

In general, IC50 refers to the concentration needed to halve the response being measured. As for `O=C1Nc2ccc(Br)cc2/C1=C1/SC(=S)N(NS(=O)(=O)c2ccccc2)C1=O`, the IC50 is 23.9 µM (active).
